Converted amounts (≈) assume the structure as drawn. Like-named read-outs stand apart in the source and are kept apart here.
Tests used:
Enterobacteriaceae = test: organism not typed; format: cell-based; details: Enterobacteriaceae, 2029 isolates; read-out: MIC90
E. coli (WT) = test: microbe, parasite or virus in culture; format: cell-based; details: Escherichia coli; E. coli (WT), 214 isolates; read-out: MIC90
E. coli (ESBL) = test: microbe, parasite or virus in culture; format: cell-based; details: Escherichia coli
Klebsiella spp. (WT) = test: microbe, parasite or virus in culture; format: cell-based; details: Klebsiella spp. (WT), 159 isolates; read-out: MIC90
Klebsiella spp. (ESBL) = test: microbe, parasite or virus in culture; format: cell-based; details: Klebsiella
Klebsiella spp. (KPC) = test: microbe, parasite or virus in culture; format: cell-based; details: Klebsiella
[1] = system: Enterobacter aerogenes (WT); test: microbe, parasite or virus in culture; format: cell-based; details: Klebsiella aerogenes; Enterobacter aerogenes (WT), 199 isolates; read-out: MIC90
[2] = system: Enterobacter aerogenes (AmpC); test: microbe, parasite or virus in culture; format: cell-based; details: Klebsiella aerogenes
[3] = system: Enterobacter cloacae (WT); test: microbe, parasite or virus in culture; format: cell-based; details: 202 isolates, read-out: MIC90
[4] = system: Enterobacter cloacae (AmpC); test: microbe, parasite or virus in culture; format: cell-based; details: Enterobacter cloacae
[5] = system: Citrobacter freundii (AmpC); test: microbe, parasite or virus in culture; format: cell-based; details: Citrobacter freundii
[6] = system: Morganella morganii (AmpC); test: microbe, parasite or virus in culture; format: cell-based; details: Morganella morganii
Proteus mirabilis (WT) = test: microbe, parasite or virus in culture; format: cell-based; details: Proteus mirabilis (WT), 235 isolates; read-out: MIC90
Proteus vulgaris (WT) = test: microbe, parasite or virus in culture; format: cell-based; details: Proteus vulgaris (WT), 41 isolates; read-out: MIC90
Providencia spp.(all) = test: microbe, parasite or virus in culture; format: cell-based; details: Providencia spp.(all), 68 isolates; read-out: MIC90
S. marcescens (AmpC) = test: microbe, parasite or virus in culture; format: cell-based; details: Serratia marcescens
P. aeruginosa = test: In vitro activity against P. aeruginosa clinical isolates; format: cell-based; details: P. aeruginosa, 2,008 clinical isolates; GSK2251052 based on potential susceptible breakpoint of ≦4 μg/mL
Experimental: GSK2251052 was tested for activity against P. aeruginosa, and its activity was compared to other antibiotics of known activity. The results are shown below in Tables 2a and 2b. Of 2,008 clinical isolates tested (from 2009-2010 subjects, of which 40% were from North America) greater than 90% were susceptible to GSK2251052 based on a potential susceptible breakpoint of ≦4 μg/mL.

E. coli ATCC 25922 = test: Spontaneous frequency of resistance; format: cell-based; details: 24 h
Experimental: (§1) Spontaneous Resistance Frequency was determined in vitro for GSK2251052 and the resistance mutants in E. coli ATCC 25922, K. pneumoniae ATCC 13883, and P. aeruginosa ATCC 27853 strains were characterized. GSK2251052 was prepared as described in U.S. Pat. No. 7,816,344 (the entire contents of which are hereby incorporated by reference herein). LB broth, Mueller Hinton II broth (adjusted), and Difco noble agar were obtained from Becton Dickinson (Cockeysville, Md., USA). M9 minimal broth containing 1×M9 salt, 0.5 μg/ML thiamine, 1 mM MgSO4, 0.1 mM CaCl2, 2% glucose, was obtained from Teknova (Hollister, Calif., USA). Antibacterial agents ciprofloxacin, ceftazidime, chloramphenicol, gentamycin, kanamycin, polymixin B, tobramycin and trimethoprim, and amino acids were obtained from Sigma Chemicals (St. Louis, Mo., USA). Strains were obtained from ATCC (Manassas, Va., USA).
(§2) Selection of resistance to GSK2251052 was attempted by spreading various amounts of bacteria onto MHBII noble agar plates containing 4×MIC (minimum inhibitory concentration) or 10×MIC of GSK2251052. Colonies were counted after 24 hours and 48 hours incubation at 37° C. The resistance of these colonies was confirmed by their ability to grow on plates containing GSK2251052 at either 4× or 10×MIC. Frequency of resistance was determined by dividing the number of resistant mutants by the total number of cells plated as determined by plating dilutions of the overnight culture on LB plates.

K. pneumoniae ATCC 13883 = test: Spontaneous frequency of resistance; format: cell-based; details: 24 h
Experimental: as §1, §2

P. aeruginosa ATCC 27853 = test: Spontaneous frequency of resistance; format: cell-based; details: 24 h
Experimental: as §1, §2

[7] = system: E. coli ATCC 25922 wild type and mutants; test: MIC, wild type and GSK2251052 resistant mutants; format: cell-based; details: Escherichia coli
Summary of the method: (§3)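 MICs were determined following CLSI M7-A7 recommendations for aerobic bacteria. Strains were E. coli ATCC 25922, K. pneumoniae ATCC 13883, P. aeruginosa ATCC 27853 and six to ten laboratory-selected GSK2251052-resistant colonies of each, carrying mutations in the LeuRS editing domain.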

[8] = system: K. pneumoniae ATCC 13883 wild type and mutants; test: MIC, wild type and GSK2251052 resistant mutants; format: cell-based; details: Klebsiella pneumoniae
Summary of the method: as §3

[9] = system: P. aeruginosa ATCC 27853 wild type and mutants; test: MIC, wild type and GSK2251052 resistant mutants; format: cell-based; details: Pseudomonas aeruginosa
Summary of the method: as §3

[10] = system: E. coli ATCC 25922, K. pneumoniae ATCC 13883 and P. aeruginosa ATCC 27853; test: MIC, three strains and their mutants summarised; format: cell-based; details: MIC in E. coli, P. aeruginosa and K. pneumoniae mutants versus wild-type
Experimental: as §1
Susceptibility tests were performed following the recommendations for aerobic bacteria (M7-A7) from the Clinical and Laboratories Standards Institute (CLSI).
Laboratory generated mutants resistant to GSK2251052 contain mutations in the editing domain of LeuRS. Six to ten GSK2251052 resistant colonies of E. coli ATCC 25922, K. pneumoniae ATCC 13883 and P. aeruginosa ATCC 27853 were selected for further analysis and their MICs to GSK2251052 were determined (Table 4-7).
GSK2251052 resistant mutants were not cross-resistant to commercial antibiotics.

K. pneumoniae = details: up regulation of an AcrAB efflux pump; Ruzin et al. AAC 2005; cited from earlier work

With `CC(C)(O/N=C(\C(=O)N[C@@H]1C(=O)N2C(C(=O)[O-])=C(C[n+]3ccccc3)CS[C@H]12)c1csc(N)n1)C(=O)O` [Ceftazidime] the MIC90 (Enterobacteriaceae) was over 16 µg/mL, the MIC90 (E. coli (WT)) was at most 1 µg/mL and the MIC90 (E. coli (ESBL)) was over 16 µg/mL. It also gave an MIC90 (Klebsiella spp. (WT)) of at most 1 µg/mL, an MIC90 (Klebsiella spp. (ESBL)) of over 16 µg/mL and an MIC90 (Klebsiella spp. (KPC)) of over 16 µg/mL. For the same compound, the MIC90 [1] was at most 1 µg/mL, the MIC90 [2] was over 16 µg/mL and the MIC90 [3] was at most 1 µg/mL. The MIC90 [4] was over 16 µg/mL, the MIC90 [5] was over 16 µg/mL and the MIC90 [6] was over 16 µg/mL. The MIC90 (Proteus mirabilis (WT)) was at most 1 µg/mL, the MIC90 (Proteus vulgaris (WT)) was at most 1 µg/mL and the MIC90 (Providencia spp.(all)) was 8 µg/mL (≈ 14.6 µM). For the same compound, the MIC90 (S. marcescens (AmpC)) was over 16 µg/mL, the “% susceptible” value (P. aeruginosa) was 66.4% and the “Frequency of Resistance” value (E. coli ATCC 25922; 4 X MIC) was <3 × 10^−9. For the same compound, the “Frequency of Resistance” value (E. coli ATCC 25922; 10 X MIC) was <3 × 10^−9, the “Frequency of Resistance” value (K. pneumoniae ATCC 13883; 4 X MIC) was 1 × 10^−8 and the “Frequency of Resistance” value (K. pneumoniae ATCC 13883; 10 X MIC) was <4 × 10^−9. For the same compound, the “Frequency of Resistance” value (P. aeruginosa ATCC 27853; 4 X MIC) was 2 × 10^−7, the “Frequency of Resistance” value (P. aeruginosa ATCC 27853; 10 X MIC) was 2 × 10^−8 and the MIC ([7]; ATCC25922, E wt, read-out: MICs) was 0.5 µg/mL (≈ 0.915 µM). For the same compound, the MIC ([7]; ATCC25922, read-out: MICs, mutant E 101) was 0.5 µg/mL (≈ 0.915 µM), the MIC ([7]; ATCC25922, read-out: MICs, mutant E 102) was 0.5 µg/mL (≈ 0.915 µM) and the MIC ([7]; ATCC25922, read-out: MICs, mutant E 107) was 0.5 µg/mL (≈ 0.915 µM). It also gave an MIC ([8]; ATCC13883, K wt., read-out: MICs) of 0.5 µg/mL (≈ 0.915 µM), an MIC ([8]; ATCC13883, read-out: MICs, mutant K 104) of 0.5 µg/mL (≈ 0.915 µM) and an MIC ([8]; ATCC13883, read-out: MICs, mutant K 105) of 0.5 µg/mL (≈ 0.915 µM). For the same compound, the MIC ([8]; ATCC13883, read-out: MICs, mutant K 107) was 0.5 µg/mL (≈ 0.915 µM), the MIC ([8]; ATCC13883, read-out: MICs, mutant K 108) was 1 µg/mL (≈ 1.83 µM) and the MIC ([8]; ATCC13883, read-out: MICs, mutant K 110) was 0.5 µg/mL (≈ 0.915 µM). It also gave an MIC ([9]; ATCC27853, P wt., read-out: MICs) of 2 µg/mL (≈ 3.66 µM), an MIC ([9]; ATCC27853, read-out: MICs, mutant P 101) of 4 µg/mL (≈ 7.32 µM) and an MIC ([9]; ATCC27853, read-out: MICs, mutant P106) of 2 µg/mL (≈ 3.66 µM). The MIC ([9]; ATCC27853, read-out: MICs, mutant P108) was 2 µg/mL (≈ 3.66 µM) and the “cross-resistance of GSK2251052 resistant mutants” value [10] was “did not have any significant difference in MIC values than wild-type”.

For `CN(C)c1cc(NC(=O)CNC(C)(C)C)c(O)c2c1C[C@H]1C[C@H]3[C@H](N(C)C)C(O)=C(C(N)=O)C(=O)[C@@]3(O)C(O)=C1C2=O` [Tigecycline], the MIC90 (Enterobacteriaceae) was 2 µg/mL (≈ 3.41 µM), the MIC90 (E. coli (WT)) was 0.25 µg/mL (≈ 0.427 µM) and the MIC90 (E. coli (ESBL)) was 0.5 µg/mL (≈ 0.854 µM). For the same compound, the MIC90 (Klebsiella spp. (WT)) was 1 µg/mL (≈ 1.71 µM), the MIC90 (Klebsiella spp. (ESBL)) was 2 µg/mL (≈ 3.41 µM) and the MIC90 (Klebsiella spp. (KPC)) was 2 µg/mL (≈ 3.41 µM). The MIC90 [1] was 0.5 µg/mL (≈ 0.854 µM), the MIC90 [2] was 2 µg/mL (≈ 3.41 µM) and the MIC90 [3] was 0.5 µg/mL (≈ 0.854 µM). The MIC90 [4] was 4 µg/mL (≈ 6.83 µM), the MIC90 [5] was 2 µg/mL (≈ 3.41 µM) and the MIC90 [6] was 4 µg/mL (≈ 6.83 µM). The MIC90 (Proteus mirabilis (WT)) was 4 µg/mL (≈ 6.83 µM), the MIC90 (Proteus vulgaris (WT)) was 2 µg/mL (≈ 3.41 µM) and the MIC90 (Providencia spp.(all)) was 4 µg/mL (≈ 6.83 µM). For the same compound, the MIC90 (S. marcescens (AmpC)) was 2 µg/mL (≈ 3.41 µM) and the “phenotype of resistant mutants” value (K. pneumoniae) was “multidrug-resistant”.
